Assay results from patent publication US6566064B1, “Method for anticipating sensitivity to medicine for osteoporosis” (Nipro Corporation, priority 1999, dated 2003).
Where two headings read alike, the source gives them in different places.

Key:
[1] = tested on: Japanese females after menopause; assay: Change in bone mineral density after 6 month administration of a medicine, by VDR/ER/ApoE4 genotype (Reference Example 1); assay type: in vivo, human; settings: for Average therapeutic effect (%) - Anticipated therapeutic effect (%) / Anticipated therapeutic effect value (index of change in bone mineral density) after 6 month administration of a medicine, Average: 6 months; for Anticipated therapeutic effect value (index of change in bone mineral density) after 6 month administration of a medicine, Average: total average on randomly sampled patients, vitamin D 1 μg/day, estrogen 0.312 mg/day, vitamin K2 45 mg/day
Excerpt: In the present invention, the pluralities of remedies for osteoporosis are preferably vitamin D, estrogen, and vitamin K2. Here, the sensitivity to a remedy for osteoporosis means the degree of therapeutic effect of the remedy on osteoporosis. That is, in the case where a medicine A is higher in therapeutic effect than a medicine B in a patient, “the sensitivity of the patient to the medicine A is higher than the sensitivity to the medicine B”. In the present invention, using a change in bone mineral density before and after administration of a medicine as an index of sensitivity, it is defined that the greater the value of “index of change in bone mineral density”−“index of change in anticipated bone mineral density”, the higher is the sensitivity to the medicine.
Blood was collected from 177 Japanese females after menopause randomly selected and blood cells were fractionated and genome DNA was extracted and purified by conventional methods. A VDR gene fragment, an ER gene fragment, and an ApoE gene fragment were separately amplified using the genome DNA as a template and the following primer pairs.
The PCR conditions were denaturation: 94° C., 60 seconds; annealing: 62° C., 60 seconds; elongation: 72° C., 60 seconds (30 cycles) for the VDR gene, denaturation: 94° C., 30 seconds; annealing: 65° C., 30 seconds; elongation: 72° C., 30 seconds (30 cycles) for the ER gene, and denaturation: 94° C., 30 seconds; annealing: 61° C., 40 seconds; elongation: 72° C., 90 seconds (30 cycles) for the ApoE gene. This PCP amplification gave a VDR gene fragment of 7.2 kbp, an ER gene fragment of 1.3 kbp, and an ApoE gene fragment of 244 bp containing polymorphism sites, respectively. After treating a VDR gene amplification reaction mixture with Bsm I, an ER gene amplification reaction mixture with Xba I, and an ApoE gene amplification reaction mixture with Hha I, the reaction mixtures were subjected to agarose gel electrophoresis. In the case where each amplification product was cleaved with the restriction enzyme at the polymorphism site, bands of 4.6 kbp and 2.6 kbp were detected for the VDR amplification product, bands of 900 bp and 400 bp were detected for the ER amplification product, and bands of 72,48, 38, 35, 19, 17, and 15 bp were detected for the ApoE amplification product.
The band of 72 bp was not detected in the case where there is no typE4 (that is, 4(−)). After the electrophoresis, the gels were dyed with ethidium bromide and polymorphisms of the VDR, ER, and ApoE genes were discriminated based on the band patterns and classified into 8 polymorphism groups (Table 3).
(§1) The 177 Japanese females after the polymorphism analysis as described above were each measured for bone mineral density. Then, one of vitamin D, estrogen, and vitamin K2 was administered to the patients for 6 months. The administration amount was 1μg/day for vitamin D, 0.312 mg/day for estrogen, and 45 mg/day for vitamin K2. After 6 months, the bone mineral density was measured again and an index of change in bone mineral density between before and after the administration of a medicine was obtained. A value obtained by subtracting an anticipated value of therapeutic effect of each medicine (total average therapeutic effect on randomly sampled patients; Table 3) from an average index of change in bone mineral density for each genotype was defined as sensitivity to a medicine for each genotype.

[2] = tested on: Japanese females after menopause; assay: Change in bone mineral density after administration of a medicine, by VDR/ER/ApoE3 genotype (Reference Example 2); assay type: in vivo, human
Procedure: as §1
Blood was collected from 167 Japanese females after menopause randomly selected and blood cells were fractionated and genome DNA was extracted and purified by conventional methods. A VDR gene fragment, an ER gene fragment and an ApoE gene fragment were separately amplified using the genome DNA as a template and the same primer pairs as in Reference Example 1 under the same amplification conditions.
After treating the gene amplification reaction mixtures with a restriction enzyme respectively, the reaction mixtures were subjected to agarose gel electrophoresis. In the case where each amplification product was cleaved with the restriction enzyme at the polymorphism site, bands of 4.6 kbp and 2.6 kbp were detected for the VDR amplification product, bands of 900 bp and 400 bp were detected for the ER amplification product, and bands of 72, 48, 38, 35, 19, 17, and 15 bp were detected for the ApoE amplification product.
To detect ApoE3 type alleles, the amplification products were treated with Hha I, and were subjected to agarose electrophoresis gel. After the electrophoresis, the gels were dyed with ethidium bromide and polymorphisms of the ApoE genes were discriminated based on the band patterns and ApoE3 types identified as a combination of bands as below described.
The 8 polymorphism groups were classified (Table 4).

[3] = cited from earlier work
[4] = VDR genotype A (not cleaved with Apa I) compared with genotype a; cited from earlier work
[5] = DBP genotype group of the GC2-2 type compared with the other groups; cited from earlier work

CC(C)=CCC/C(C)=C/CC/C(C)=C/CC/C(C)=C/CC1=C(C)C(=O)c2ccccc2C1=O [Vitamin K2, vitamin K2]
Average therapeutic effect (%) - Anticipated therapeutic effect (%) ([1]; genotype B(+)x(+)4(−)): 1.46%
Average therapeutic effect (%) - Anticipated therapeutic effect (%) ([1]; genotype B(+)x(−)4(+)): −0.59%
Average therapeutic effect (%) - Anticipated therapeutic effect (%) ([1]; genotype B(+)x(−)4(−)): 1.08%
Average therapeutic effect (%) - Anticipated therapeutic effect (%) ([1]; genotype B(−)X(+)4(−)): 0.60%
Average therapeutic effect (%) - Anticipated therapeutic effect (%) ([1]; genotype B(−)X(−)4(+)): −2.68%
Average therapeutic effect (%) - Anticipated therapeutic effect (%) ([1]; genotype B(−)X(−)4(−)): 0.68%
sensitivity to the medicine relative to the other two medicines ([1]; genotypes [B(−) X(−) 4(−)] and [B(+) X(−) 4(−)]): higher than the sensitivity to vitamin D and the sensitivity to estrogen
Anticipated therapeutic effect value (index of change in bone mineral density) after 6 month administration of a medicine, Average [1]: 0.59%
Average therapeutic effect (%) - Anticipated therapeutic effect (%) ([2]; genotype B(+)X(+)3(+)): 3.248%
Average therapeutic effect (%) - Anticipated therapeutic effect (%) ([2]; genotype B(+)X(−)3(+)): 1.852%
Average therapeutic effect (%) - Anticipated therapeutic effect (%) ([2]; genotype B(−)X(+)3(+)): −0.2083%
Average therapeutic effect (%) - Anticipated therapeutic effect (%) ([2]; genotype B(−)X(−)3(+)): −0.8443%
Average therapeutic effect (%) - Anticipated therapeutic effect (%) ([2]; genotype B(−)X(−)3(−)): −2.855%
sensitivity to vitamin K2 ([3]; ApoE4(+) group compared with ApoE4(−) group): significantly lower

estrogen
Average therapeutic effect (%) - Anticipated therapeutic effect (%) ([1]; genotype B(+)x(+)4(−)): 1.74%
Average therapeutic effect (%) - Anticipated therapeutic effect (%) ([1]; genotype B(+)x(−)4(+)): −1.07%
Average therapeutic effect (%) - Anticipated therapeutic effect (%) ([1]; genotype B(+)x(−)4(−)): −0.93%
Average therapeutic effect (%) - Anticipated therapeutic effect (%) ([1]; genotype B(−)X(+)4(+)): 7.87%
Average therapeutic effect (%) - Anticipated therapeutic effect (%) ([1]; genotype B(−)X(+)4(−)): 2.78%
Average therapeutic effect (%) - Anticipated therapeutic effect (%) ([1]; genotype B(−)X(−)4(+)): −2.52%
Average therapeutic effect (%) - Anticipated therapeutic effect (%) ([1]; genotype B(−)X(−)4(−)): −0.94%
sensitivity to the medicine relative to the other two medicines ([1]; genotypes [B(−) X(+) 4(−)], [B(−) X(+) 4(+)], [B(+) X(+) 4(−)] and [B(+) X(+) 4(+)]): higher than the sensitivity to vitamin D and the sensitivity to vitamin K2
Anticipated therapeutic effect value (index of change in bone mineral density) after 6 month administration of a medicine, Average [1]: 3.26%
Average therapeutic effect (%) - Anticipated therapeutic effect (%) ([2]; genotype B(+)X(+)3(+)): 0.4144%
Average therapeutic effect (%) - Anticipated therapeutic effect (%) ([2]; genotype B(+)X(−)3(+)): −0.8961%
Average therapeutic effect (%) - Anticipated therapeutic effect (%) ([2]; genotype B(+)X(−)3(−)): 0.03227%
Average therapeutic effect (%) - Anticipated therapeutic effect (%) ([2]; genotype B(−)X(+)3(+)): 3.741%
Average therapeutic effect (%) - Anticipated therapeutic effect (%) ([2]; genotype B(−)X(+)3(−)): 4.514%
Average therapeutic effect (%) - Anticipated therapeutic effect (%) ([2]; genotype B(−)X(−)3(+)): −0.07099%
Average therapeutic effect (%) - Anticipated therapeutic effect (%) ([2]; genotype B(−)X(−)3(−)): −1.151%
sensitivity to estrogen ([3]; ER genotype PpXx compared with other genotype groups): significantly higher

vitamin D
Average therapeutic effect (%) - Anticipated therapeutic effect (%) ([1]; genotype B(+)x(+)4(+)): 0.46%
Average therapeutic effect (%) - Anticipated therapeutic effect (%) ([1]; genotype B(+)x(+)4(−)): −1.75%
Average therapeutic effect (%) - Anticipated therapeutic effect (%) ([1]; genotype B(+)x(−)4(+)): −0.27%
Average therapeutic effect (%) - Anticipated therapeutic effect (%) ([1]; genotype B(+)x(−)4(−)): −0.66%
Average therapeutic effect (%) - Anticipated therapeutic effect (%) ([1]; genotype B(−)X(+)4(+)): 0.34%
Average therapeutic effect (%) - Anticipated therapeutic effect (%) ([1]; genotype B(−)X(+)4(−)): 0.37%
Average therapeutic effect (%) - Anticipated therapeutic effect (%) ([1]; genotype B(−)X(−)4(+)): 0.56%
Average therapeutic effect (%) - Anticipated therapeutic effect (%) ([1]; genotype B(−)X(−)4(−)): 0.05%
sensitivity to the medicine relative to the other two medicines ([1]; genotype [B(−) X(−) 4(+)]): higher than the sensitivity to vitamin K2 and the sensitivity to estrogen
Anticipated therapeutic effect value (index of change in bone mineral density) after 6 month administration of a medicine, Average [1]: 1.15%
Average therapeutic effect (%) - Anticipated therapeutic effect (%) ([2]; genotype B(+)X(+)3(+)): −0.6927%
Average therapeutic effect (%) - Anticipated therapeutic effect (%) ([2]; genotype B(+)X(+)3(−)): 0.461%
Average therapeutic effect (%) - Anticipated therapeutic effect (%) ([2]; genotype B(+)X(−)3(+)): 0.02042%
Average therapeutic effect (%) - Anticipated therapeutic effect (%) ([2]; genotype B(+)X(−)3(−)): 2.234%
Average therapeutic effect (%) - Anticipated therapeutic effect (%) ([2]; genotype B(−)X(+)3(+)): 1.643%
Average therapeutic effect (%) - Anticipated therapeutic effect (%) ([2]; genotype B(−)X(+)3(−)): −3.114%
Average therapeutic effect (%) - Anticipated therapeutic effect (%) ([2]; genotype B(−)X(−)3(+)): 0.4017%
Average therapeutic effect (%) - Anticipated therapeutic effect (%) ([2]; genotype B(−)X(−)3(−)): 1.498%
sensitivity to vitamin D ([3]; VDR genotype AAB compared with aabb): significantly lower
sensitivity to vitamin D [4]: more sensitive
sensitivity to vitamin D [5]: higher in sensitivity
